In this data set the test system is skin. In words: 14-day cumulative irritation potential study (predictive occlusive patch test). The source says: Occlusive patches with 100 micro liters of test product were applied to the skin daily for 14 days. Patches with sodium lauryl sulfate, 1.0% was used as a positive control while white petrolatum was used as a negative control.

As to `CCCCCCCCCCCCOS(=O)(=O)[O-].[Na+]` [Sodium lauryl sulfate, 1.0%, Sodium lauryl sulfate], the “Classification (irritation classification according to Berger and Bowman)” value runs as follows: (based on standardized cumulative irritation scores, 14 days, listed as Sodium lauryl sulfate 1.0%, sulfate) “possibly mild”; (based on standardized cumulative irritation scores, 14 days, sulfate) “Possibly mild in”. The “Standardized Cumulative Score (cumulative irritation score)” value (occlusive patches, 100 micro liters, daily for 14 days) is listed as 595.4.

As to White Petrolatum, where the note is “in vivo”, the “Category (irritation classification of Berger and Bowman)” value is “I”; the “Classification (irritation classification according to Berger and Bowman)” value is “Mild material -”.

The values above are taken from patent US20140303229A1, “NOVEL SKIN MOISTURIZING COMPOSITIONS” (priority 2007, published 2014).
